Reference: patent publication US11504349B2, “Composition for preventing or treating TNF-related diseases, containing novel derivative as active ingredient, and method for inhibiting TNF activity by using same” (ILAB, priority 2017, dated 2022)

Key:
biotinylated TNF = target: T1, biotinylated TNF (Homo sapiens, UniProt P01375); experiment: Flow cytometry: binding of biotinylated TNF to Raw 264.7 cells; assay type: cell-based, mouse; details: compound 800, 200, 5 μM, FACS, FIG. 3a
T1 construct: purchased R&D Systems NFTAO
T1 sequence (P01375 77-233 limits assumed): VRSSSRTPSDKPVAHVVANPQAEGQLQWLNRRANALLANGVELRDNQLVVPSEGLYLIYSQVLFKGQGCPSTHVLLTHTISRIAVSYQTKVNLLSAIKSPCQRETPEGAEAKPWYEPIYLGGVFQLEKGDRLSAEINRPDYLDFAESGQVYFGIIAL
Experimental: First, macrophage Raw 264.7 cells were prepared (4×10^6 cells/ml), and the biotinylated TNF alone or in combination with the 4-benzopyranone derivative compound (800, 200, 5 μM) was added to the cells and reacted (30 min, 4° C.). 10 μl of avidin-FITC reagent was then added and reacted in the dark (30 min, 4° C.). After washing with RDF1 buffer, FACS analysis was carried out (BD Canto). Human TNF-alpha Biotinylated Fluorokine Flow Cytometry Kit (Cat #: NFTAO) of R&D Systems was used in the experiment.

TNF [1] = target: T2, TNF (Homo sapiens, UniProt P01375); experiment: TNF-neutralization bioassay: TNF-induced cell death of LM cells (MTT); assay type: cell-based; details: for inhibition at 50 µM: compound 50 μM, TNF 20 ng/ml, actinomycin D, LM cells, 24 hours; for IC50: inhibition of TNF-induced LM cell death
T2 sequence (P01375 77-233 limits assumed): as above
Method in brief: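 Mouse fibroblast LM cells (5×10^4 cells/well) treated with TNF (20 ng/ml), compound and actinomycin D sensitizer for 24 h. Viability by MTT (4 h), absorbance at 570 nm. % TNF inhibition from OD relative to TNF-treated and untreated groups; IC50 and CC50 by Prism.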

TNF [2] = target: T2, TNF; experiment: SPR (Biacore T200) direct binding to immobilized TNF; details: FIG. 2d
Experimental: The binding kinetics of TNF and 4-benzopyranone derivative compounds was measured by Surface Plasmon Resonance (SPR) method. First, based on the results of pH scouting (10 mM acetate buffer, pH 4.0, 4.5, 5.0, and 5.5), the appropriate buffer pH was determined, and then the recombinant TNF was immobilized on the CM5 chip (4000-5000 RU). In order to correct an effect of DMSO, a solvent correction standard was then prepared, and DMSO was added to the HBS-EP+ buffer (GE) in an amount of 5%. Then, the 4-benzopyranone derivative compounds were prepared depending on concentration, flowed into the chip (20 μl/min, 500 s), and dissolved (500 s), and the results of sensorgram were analyzed by a dedicated program to determine the affinity value (KD). At this time, the running buffer was HBS-EP+ buffer (GE), the regeneration buffer was 10 mM glycine (pH 2.5), and Biacore T200 (GE) was used as an analyzer.

[3] = Cytotoxicity (CC50) in LM cells, MTT assay; assay type: cell-based; details: mouse, LM cells (mouse fibroblasts); 50% cytotoxic concentration
Experimental: First, the addition of recombinant TNF to mouse fibroblast LM cells induces cell death, and thus, by using the same, the TNF-neutralization bioassay was constructed. In other words, LM cells were pretreated with TNF (20 ng/ml) and the compounds synthesized in the above examples at various concentrations (5×10^4 cells/well), and a sensitizer actinomycin D ([…]) was added, and cultured in a CO2 incubator for 24 hours, and then the MTT assay was carried out. At this time, 10 μl of MTT (5 mg/ml stock) was added, reacted for 4 hours, and then dissolved in DMSO to measure the absorbance at 570 nm. First, the TNF cell death inhibition/neutralization action of TNF-target expected compounds at single concentration (50 or 10 μM) was measured. Second, IC50 values were determined by treating with the compounds having an excellent effect at different concentrations. The % inhibition of TNF was calculated using the following formula: % inhibition of TNF=(OD value of a group treated with TNF and compound−OD value of TNF treated group/(OD value of TNF untreated group−OD value of TNF treated group)×100.
IC50 values were statistically analyzed using Prism 6 (GraphPad) (IC50: 50% inhibitory concentration, CC50: 50% cytotoxic concentration).

DBA/1 mice = experiment: CIA mouse model, alone and in combination with methotrexate; assay type: in vivo; details: Example 61 10 mpk PO once a day, MTX 5 mpk three times a week, to Day 73
From the text: A 1:1 mixture of collagen type 2 and CFA was intradermally (ID) injected into the base of the tail of DBA/1 mice. Two weeks after the primary immunization, a 1:1 mixture of bovine collagen type 2 and IFA (incomplete Freund's adjuvant) was intradermally (ID) injected into the base of the tail to prepare the rheumatoid arthritis animal model. The thus prepared mice were divided into […], i.e., a positive control group (MTX 5 mpk treated group: 10 mice), a group treated with the compound of Example 61 alone (10 mpk treated group: 9 mice), a group treated with MTX and the compound of Example 61 (each 5 mpk and 10 mpk; 9 mice), and a group treated with vehicle (a group treated with 0.05% CMC diluted in distilled water; 15 mice). […]
The severity of arthritis was determined by ascertaining the mean score of arthritis according to the following standard score in the forefoot and hindfoot twice a week from Day 0 to Day 73 after the primary immunization: 0=normal foot, 1=inflammation and swelling of one toe, 2=inflammation and swelling of more than one toe, but not all of the toes have inflammation and swelling, or weak swelling of all toes, 3=inflammation and swelling of all toes, and 4=severe inflammation and swelling or occlusion of foot.

| binding to TNF (TNF [2]) | melting point [°C] | SMILES | inhibitory activity against TNF-cell binding (biotinylated TNF) | inhibition at 50 µM (TNF [1]) [%] | IC50 (TNF [1]) [µM] | CC50 at 24 h [3] [µM] | therapeutic effect on arthritis (mean arthritis score) (DBA/1 mice) |
| --- | --- | --- | --- | --- | --- | --- | --- |
| did not bind to TNF | 208 to 210 | Cc1cccc(-c2oc3ccc(Br)cc3c(=O)c2C(=O)O)c1 [Example 30, 2-(3-methylphenyl)-3-carboxy-6-bromo-(4H)-4-benzopyranone] | did not inhibit the cell binding of TNF at all | 7.4 | – | – | – |
| – | 216 to 218 | O=C(O)c1c(-c2cc(F)cc(F)c2)oc2ccc(Br)cc2c1=O [Example 51, 2-(3,5-difluorophenyl)-3-carboxy-6-bromo-(4H)-4-benzopyranone] | moderate inhibitory activity | 100 | 4.5 | 13 | – |
| – | 211 to 213 | O=C(O)c1c(-c2ccc(Cl)cc2)oc2ccc(Br)cc2c1=O [Example 72, 2-(4-chlorophenyl)-3-carboxy-6-bromo-(4H)-4-benzopyranone] | – | 100 | 20.8 | > 50 | – |
| – | 238 to 239 | COc1cccc2c(=O)c(C(=O)O)c(-c3ccc(Cl)cc3)oc12 [Example 74, 2-(4-chlorophenyl)-3-carboxy-8-methoxy-(4H)-4-benzopyranone] | – | 79 | 52.5 | > 50 | – |
| – | – | CN(Cc1cnc2nc(N)nc(N)c2n1)c1ccc(C(=O)N[C@@H](CCC(=O)O)C(=O)O)cc1 [MTX, methotrexate, reference compound] | – | – | – | – | therapeutic effect on arthritis was shown |
